Assay results published in patent publication US5597848A, “Benzenesulfonamide derivatives and use thereof” (Hokuriku Seiyaku Co., Ltd., priority 1992, dated 1997).

target: T1, thromboxane A2 receptor (Cavia porcellus, UniProt A0A286Y4I8); experiment: Thromboxane A2 antagonistic effect: inhibition of U-46619-induced platelet aggregation in guinea-pig platelet-rich plasma; assay type: cell-based, guinea-pigs; settings: guinea-pig PRP, U-46619 2 μg/ml, 2 min at 37° C.; read-out: IC50 (50% inhibition against platelet aggregation)
T1 construct: platelet-rich plasma; endogenous in cells; host or cells: guinea-pig platelets in platelet-rich plasma
T1 sequence (A0A286Y4I8 1-347): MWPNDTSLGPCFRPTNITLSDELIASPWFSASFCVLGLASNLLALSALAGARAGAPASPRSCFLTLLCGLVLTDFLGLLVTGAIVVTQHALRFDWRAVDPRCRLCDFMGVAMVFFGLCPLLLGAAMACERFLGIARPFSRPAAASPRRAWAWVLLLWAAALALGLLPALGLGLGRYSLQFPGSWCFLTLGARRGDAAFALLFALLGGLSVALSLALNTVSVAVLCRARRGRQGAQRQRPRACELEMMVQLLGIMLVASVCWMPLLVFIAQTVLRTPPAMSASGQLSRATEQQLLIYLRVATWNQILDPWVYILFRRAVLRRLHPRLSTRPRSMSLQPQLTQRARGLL
Description: Blood was collected from the abdominal aorta of guinea-pigs (about 400 g wt.) into 1/10 volume of 3.8% sodium citrate, and then platelet-rich plasma (PRP: 6×10^5 cells/μl) was obtained by centrifugation. A cuvette was filled with PRP 190 μl and set in an aggregometer (Hema Tracer I; Niko Bioscience). Incubation was carried out for 2 min. at 37° C. after the addition of 1 μl of dimethyl sulfoxide solution of test compounds. To the PRP, 10 μl of U-46619 (Cayman), a thromboxane A2 /prostaglandin H2 receptor agonist and potent platelet aggregation inducer, was added at the final concentration of 2 μg/ml, and platelet aggregation was measured by an aggregometer.

| SMILES | IC50 [nM] |
| --- | --- |
| CCC(NS(=O)(=O)c1ccc(Cl)cc1)c1ccc(CCCC(=O)O)cc1 (stereo not shown) [Example 64, 4-[4-[1-(4-Chlorophenylsulfonylamino)propyl]phenyl]butyric Acid] | 160 |
| CC(C)CC(NS(=O)(=O)c1ccc(Cl)cc1)c1ccc(CCCC(=O)O)cc1 (stereo not shown) [Example 70, 4-[4-[1-(4-Chlorophenylsulfonylamino)-3-methylbutyl]phenyl]butyric Acid] | 320 |
| O=C(O)CCCc1ccc(C(CCCCC2CCCCC2)NS(=O)(=O)c2ccc(Cl)cc2)cc1 (stereo not shown) [Example 82, 4-[4-[1-(4-Chlorophenylsulfonylamino)-5-cyclohexylpentyl]phenyl]butyric Acid] | 400 |
| O=C(O)CCc1ccc(C(Cc2ccccc2)NS(=O)(=O)c2ccc(Cl)cc2)cc1 (stereo not shown) [Example 86, 3-[4-[1-(4-Chlorophenylsulfonylamino)-2-phenylethyl]phenyl]propionic Acid] | 250 |
| O=C(O)CCCc1ccc(C(Cc2ccccc2)NS(=O)(=O)c2ccc(F)cc2)cc1 (stereo not shown) [Example 88, 4-[4-[1-(4-Fluorophenylsulfonylamino)-2-phenylethyl]phenyl]butyric Acid] | 320 |
| O=C(O)CCCc1ccc(C(Cc2ccccc2)NS(=O)(=O)c2ccc(Br)cc2)cc1 (stereo not shown) [Example 89, 4-[4-[1-(4-Bromophenylsulfonylamino)-2-phenylethyl]phenyl]butyric Acid] | 32 |
| Cc1ccc(S(=O)(=O)NC(Cc2ccccc2)c2ccc(CCCC(=O)O)cc2)cc1 (stereo not shown) [Example 90, 4-[4-[1-(p-Tolylsulfonylamino)-2-phenylethyl]phenyl]butyric Acid] | 320 |
| O=C(O)CCCCc1ccc(C(Cc2ccccc2)NS(=O)(=O)c2ccc(Cl)cc2)cc1 (stereo not shown) [Example 92, 5-[4-[1-(4-Chlorophenylsulfonylamino)-2-phenylethyl]phenyl]valeric Acid] | 320 |
| CCCCCCCC(NS(=O)(=O)c1ccc(Cl)cc1)c1ccc(CCCC(=O)O)cc1 (stereo not shown) [Example 100, 4-[4-[1-(4-Chlorophenylsulfonylamino)octyl]phenyl]butyric Acid] | 790 |

Continued by falling IC50, values first:

| IC50 [nM] | SMILES |
| --- | --- |
| 320 | CC(C)(C)CC(NS(=O)(=O)c1ccc(Cl)cc1)c1ccc(CCCC(=O)O)cc1 (stereo not shown) [Example 72, 4-[4-[1-(4-Chlorophenylsulfonylamino)-3,3-dimethylbutyl]phenyl]butyric Acid] |
| 320 | O=C(O)CCCc1ccc(C(Cc2ccccc2)NS(=O)(=O)c2ccccc2)cc1 (stereo not shown) [Example 87, 4-[4-[2-phenyl-1-(phenylsulfonylamino)ethyl]phenyl]butyric Acid] |
| 320 | COc1ccc(S(=O)(=O)NC(Cc2ccccc2)c2ccc(CCCC(=O)O)cc2)cc1 (stereo not shown) [Example 91, 4-[4-[1-(4-Methoxyphenylsulfonylamino)-2-phenylethyl]phenyl]butyric Acid] |
| 320 | O=C(O)CCCc1ccc(C(Cc2ccccc2F)NS(=O)(=O)c2ccc(Cl)cc2)cc1 (stereo not shown) [Example 93, 4-[4-[1-(4-Chlorophenylsulfonylamino)-2-(2-fluorophenyl)ethyl]phenyl]butyric Acid] |
| 320 | O=C(O)CCCc1ccc(C(CCCc2ccccc2)NS(=O)(=O)c2ccc(Cl)cc2)cc1 (stereo not shown) [Example 114, 4-[4-[1-(4-Chlorophenylsulfonylamino)-4-phenylbutyl]phenyl]butyric Acid] |
| 320 | O=C(O)CCCc1ccc(C(CCCCc2ccccc2)NS(=O)(=O)c2ccc(Cl)cc2)cc1 (stereo not shown) [Example 115, 4-[4-[1-(4-Chlorophenylsulfonylamino)-5-phenylpentyl]phenyl]-butyric Acid] |
| 63 | O=C(O)CCCc1ccc(C(Cc2cccc(F)c2)NS(=O)(=O)c2ccc(Cl)cc2)cc1 (stereo not shown) [Example 94, 4-[4-[1-(4-Chlorophenylsulfonylamino)-2-(3-fluorophenyl)ethyl]phenyl]butyric Acid] |
